The values that follow come from patent US8426406B2, “Glucocorticoid receptor agonist comprising 2,2,4-trimethyl-6-phenyl-1,2-dihydroquinoline derivatives having substituted oxy group” (Santen Pharmaceutical Co., Ltd., priority 2008, dated 2013).

Assay [1] has as its system choroidal neovascularization (CNV) model in rats. The assay is described as follows: Evaluation test for inhibitory effect of choroidal neovascularization (laser induced CNV model in rats). The format is in vivo. As to conditions: Brown Norway rats, 1% (w/v) suspension eye drops four times a day or 20 mg/mL subconjunctival injection (route not given), vs vehicle, mean of 7-8 eyes in 4 rats. How it is done: The choroidal neovascularization (CNV) model in rats is known as one of the popular methods for evaluating the CNV inhibitory effect of drugs. This method is reported in Graefe's Arch. Cli. Exp. Ophthalmol., 235, 313-319 (1997). According to this method, the CNV examinations were performed to evaluate the CNV inhibitory effect of test compounds by comparing the incidence rates of CNV in vehicle group (control group) with test compound-treated groups.
For eye drop administration, a 1% (w/v) test compound suspension was prepared by adding 0.5% polysorbate 80/saline to the test compound. For subconjunctival injection, a 20 mg/mL test compound suspension was prepared by adding 0.5% hydrogenated castor oil/saline to the test compound.
1) Brown Norway male rats (7-8 weeks, 140-240 g) were anesthetized with intramuscular injection (1 mL/kg) of the mixed solution (5% ketamine HCl: 2% xylazine HCl=7:1).
2) After mydriasis using tropicamide phenylephrine hydrochloride eye drops (trade name Mydrin P), laser photocoagulation of bruch's membrane in rats was performed with krypton laser photocoagulation machine. Laser irradiation was performed at 8-9 points per eye avoiding thick retinal blood vessels in ocular fundus and focusing on the depth of retina. The conditions were 100 μm spot size, 100 mW power, 0.1 second duration.
3) After laser photocoagulation, photographs of ocular fundus were taken and the laser photocoagulation (laser irradiation) points were confirmed.
1) In case of eye drops administration, a test compound suspension was administrated four times a day from laser irradiation day (the 1st day) to the 8th day. In case of subconjunctival injection, a 50 μL test compound suspension was injected into conjunctivae just after laser irradiation.
2) In vehicle group (control group), 0.5% polysorbate 80/saline or 0.5% hydrogenated castor oil/saline was used instead of a test compound suspension. And the test was performed according to the method 1).
1) 7 days after laser irradiation, 0.1 mL of 10% fluorescein was injected into rat tail vein and fluorescein angiography was performed.
2) When the fluorescent leakage was not detected in the fluorescent angiography, the spot was judged to be a negative spot. When the fluorescent leakage was detected, the spot was judged to be a positive spot. When the fluorescent leakage was detected as a little leakage, two spots were counted as one positive spot.
3) The neovascular incidence rate was calculated according to the equation 1. According to the equation 2, the ratio of neovascular incidence rate in test compound group to vehicle group was calculated. Neovascular incidence rate(%)=(Positive spots/all spots)×100 (Equation 1) Angiogenic inhibition ratio in test compound group(%)=(1−Ax/Ao)×100 (Equation 2)
Ao: Neovascular incidence rate in vehicle group (control group)
Ax: Neovascular incidence rate in test compound group

In assay [2] the test system is atopic dermatitis model in mice. The assay is described as follows: Inhibitory effect test on the vascular hyper-permeability in the atopic dermatitis model. Format: in vivo. The settings on record: DNFB, 1% (W/W) test compound ointment on ears, 21 times in total, dye leakage vs vehicle, 12 ears in 6 animals. How it is done: In order to evaluate the effects in atopic dermatitis of the present compound, the inhibitory effects of test compound on the vascular hyper-permeability in the atopic dermatitis model in mice were investigated. Procedure of atopic dermatitis model and estimation method was used according to the method of Nagai et al. (J. Pharmacol. Exp. Ther., 283: 321-327 (1997)) with modification. The inhibitory effects were calculated based on dye leakage in vehicle-treated group (control) and test compound-treated group.
The test compound was mixed with white petrolatum, whereby a 1% (W/W) test compound ointment was prepared.
1) Mice were challenged by topical instillation of 25 μL of 0.15% DNFB solution on both sides of both ears once a week for 5 weeks.
2) Test compounds were administered by topical instillation of 25 μL ointments on each side of both ears five times a week from the previous day of the 1st DNFB painting to the previous day of 5th DNFB painting, 21 times in total. Mice were painted with the test compound ointment onto the ear, 25 μL to the inner and 25 μL to outer side. In vehicle-treated group (control group), white petrolatum was administered by topical instillation in the same way.
3) Dyes, a solution of 0.2% Evans blue, were administered to mice intravenously just after the 5th DNFB painting. Ear tissues were removed 2 hours after the intravenous injection of dyes. Then each removed tissue was put into dye extract and dye was extracted. The absorbance of each extract was determined with a spectrophotometer. The amount of dye leakage was calculated from obtained absorbance. The inhibition ratio of the vascular hyper-permeability associated with atopic dermatitis of test compound-treatment group was calculated according to the following equation 1. The inhibition ratio of the vascular hyper-permeability of test compound-treatment group(%)=(1−Ax/Ao)×100 (Calculation Equation 1) Ao: the amount of dye leakage in vehicle-treated group (Control) Ax: the amount of dye leakage in test compound-treated group (Result and Discussion)

`COc1cc(OC(=O)c2ccsc2)ccc1-c1ccc2c(c1COc1cc(F)ccc1C)C(C)=CC(C)(C)N2` [Compound 1-12, 5-(5-Fluoro-2-methylphenoxymethyl)-6-[2-methoxy-4-(thiophen-3-ylcarbonyloxy)phenyl]-2,2,4-trimethyl-1,2-dihydroquinoline]: the “Angiogenic inhibition ratio (%)” value in assay [1] came out at 37%. Moreover, the “Inhibition ratio of the vascular hyper-permeability (%)” value in assay [2] is 22%.
On to `COc1cc(OC(=O)c2ccco2)ccc1-c1ccc2c(c1COc1cc(F)ccc1C)C(C)=CC(C)(C)N2` [Compound 1-13, 5-(5-Fluoro-2-methylphenoxymethyl)-6-[4-(furan-2-ylcarbonyloxy)-2-methoxyphenyl]-2,2,4-trimethyl-1,2-dihydroquinoline], for which the “Angiogenic inhibition ratio (%)” value in assay [1] was determined as 38%. In assay [2], the “Inhibition ratio of the vascular hyper-permeability (%)” value was determined as 13%.
On the same counts, the results for `COc1cc(OC(=O)c2cccnc2)ccc1-c1ccc2c(c1COc1cc([N+](=O)[O-])ccc1C)C(C)=CC(C)(C)N2` [Compound 1-72, 6-[2-Methoxy-4-(pyridin-3-ylcarbonyloxy)phenyl]-5-(2-methyl-5-nitrophenoxymethyl)-2,2,4-trimethyl-1,2-dihydroquinoline] are 28% and 15%.
On to `CCCS(=O)(=O)Oc1ccc(-c2ccc3c(c2CNc2ccccc2OC)C(C)=CC(C)(C)N3)c(OC)c1` [Compound 4-18, 5-(2-Methoxyphenylaminomethyl)-6-(2-methoxy-4-propylsulfonyloxyphenyl)-2,2,4-trimethyl-1,2-dihydroquinoline], for which the “Angiogenic inhibition ratio (%)” value in assay [1] was determined as 35%. Besides, in assay [2], the “Inhibition ratio of the vascular hyper-permeability (%)” value came to 30%.
